Results reported in patent EP2998289B1, “COMPOUNDS FOR TARGETING DRUG DELIVERY AND ENHANCING SIRNA ACTIVITY” (NITTO DENKO CORPORATION, priority 2011, dated 2012).

Columns and labels:
[1] = system: gp46; test: pHSC in vitro assay: gp46/HSP47 mRNA knockdown by siRNA formulations, qRT-PCR; settings: for in vitro (pHSC) % KD: @ 50 nM, label = cationic lipid of the formulation, 2880 min; for in vitro (pHSC) EC50 or % KD: % KD @ 50 nM, 20:20 HEDC:S104 with 2% conjugate
[2] = system: gp46; test: in vivo efficacy, rat DMNQ short-term liver damage model (liver gp46 mRNA)
[3] = @ 0.75 mpk, 20:20 HEDC:S104 with 2% retinoid conjugate

Row | Molecule | in vitro (pHSC) % KD [1] | further results
1 | CCCCCCCCCCCCCC(=O)OCCCN(CCCOC(=O)CCCCCCCCCCCCC)C(=O)C[N+](C)(C)CCO.[Br-] [Pr-HEDC, 2-(bis(3-(tetradecanoyloxy)propyl)amino)-N-(2-hydroxyethyl)-N,N-dimethyl-2-oxoethanaminium bromide] | 75% @ 50 nM | 
2 | CCCCCCCCCCCCCC(=O)OCCN(CCOC(=O)CCCCCCCCCCCCC)C(=O)CC[N+](C)(C)CCO.[Br-] [HE-Et-DC, 3-(bis(2-(tetradecanoyloxy)ethyl)amino)-N-(2-hydroxyethyl)-N,N-dimethyl-3-oxopropan-1-aminium bromide] | 70% @ 50 nM | 
3 | CCCCCCCC/C=C\CCCCCCCC(=O)OCCN(CCOC(=O)CCCCCCC/C=C\CCCCCCCC)C(=O)CCC[N+](C)(C)CCO.[Br-] [HE-Pr-DODC, 4-(bis(2-(oleoyloxy)ethyl)amino)-N-(2-hydroxyethyl)-N,N-dimethyl-4-oxobutan-1-aminium bromide] | 75% @ 50 nM | 
4 | N1,N19-bis((16S)-16-(3,7-dimethyl-9-(2,6,6-trimethylcyclohex-1-en-1-yl)nonanamido)-24,28-dimethyl-15,22-dioxo-30-(2,6,6-trimethylcyclohex-1-en-1-yl)-4,7,10-trioxa-14,21-diazatriacontyl)-4,7,10,13,16-pentaoxanonadecane-1,19-diamide [satDiVA] |  | in vivo (rat DMNQ) % KD [2, 3]: 74% @ 0.75 mpk; in vitro (pHSC) EC50 or % KD [1]: 73% @ 50 nM
5 | CCCCCCCC/C=C\CCCCCCCC(=O)OCCN(CCOC(=O)CCCCCCC/C=C\CCCCCCCC)C(=O)CC[N+](C)(C)CCO.[Br-] [HE-Et-DODC, 3-(bis(2-(oleoyloxy)ethyl)amino)-N-(2-hydroxyethyl)-N,N-dimethyl-3-oxopropan-1-aminium bromide] | 71% @ 50 nM | 
6 | CC1=C(/C=C/C(C)=C/C=C/C(C)=C/C(=O)NCCCC[C@H](NC(=O)/C=C(C)/C=C/C=C(C)/C=C/C2=C(C)CCCC2(C)C)C(=O)NCCCOCCOCCOCCCNC(=O)CCOCCOCCOCCOCCOCCC(=O)NCCCOCCOCCOCCCNC(=O)[C@H](CCCCNC(=O)/C=C(C)/C=C/C=C(C)/C=C/C2=C(C)CCCC2(C)C)NC(=O)/C=C(C)/C=C/C=C(C)/C=C/C2=C(C)CCCC2(C)C)C(C)(C)CCC1 [DiVA, N1,N19-bis((S,23E,25E,27E,29E)-16-((2E,4E,6E,8E)-3,7-dimethyl-9-(2,6,6-trimethylcyclohex-1-en-1-yl)nona-2,4,6,8-tetraenamido)-24,28-dimethyl-15,22-dioxo-30-(2,6,6-trimethylcyclohex-1-en-1-yl)-4,7,10-trioxa-14,21-diazatriaconta-23,25,27,29-tetraen-1-yl)-4,7,10,13,16-pentaoxanonadecane-1,19-diamide] |  | in vivo (rat DMNQ) % KD [2, 3]: 60% @ 0.75 mpk; inhibition at 0.05 µM ([1]; Rattus norvegicus, read-out: in vitro (pHSC) EC50 or % KD): 74%
7 | CCCCCCCCCCCCCC(=O)NCCCC[C@@H](NC(=O)CCCCCCCCCCCCC)C(=O)NCCCOCCOCCOCCCNC(=O)CCOCCOCCOCCOCCOCCC(=O)NCCCOCCOCCOCCCNC(=O)[C@@H](CCCCNC(=O)CCCCCCCCCCCCC)NC(=O)CCCCCCCCCCCCC [Example 4Myr, N1,N19-bis((R)-15,22-dioxo-16-tetradecanamido-4,7,10-trioxa-14,21-diazapenta-triacontyl)-4,7,10,13,16-pentaoxanonadecane-1,19-diamide] |  | in vitro (pHSC) EC50 or % KD [1]: 27% @ 50 nM
8 | CCCCCCCCCCCCCC(=O)OCCN(CCOC(=O)CCCCCCCCCCCCC)C(=O)C[N+](C)(C)CCO.[Br-] [HEDC, 2-(bis(2-(tetradecanoyloxy)ethyl)amino)-N-(2-hydroxyethyl)-N,N-dimethyl-2-oxoethanaminium bromide] | 68% @ 50 nM | in vivo (rat DMNQ) % KD ([2]; @ 0.5 mpk, label = cationic lipid of the formulation): 52% @ 0.5 mpk
9 | CCCCCCCC/C=C\CCCCCCCC(=O)OCCN(CCOC(=O)CCCCCCC/C=C\CCCCCCCC)C(=O)C[N+](C)(CCO)CCO.[Br-] [HE2DODC, 2-(bis(2-(oleoyloxy)ethyl)amino)-N,N-bis(2-hydroxyethyl)-N-methyl-2-oxoethanaminium bromide] | 78% @ 50 nM | 
10 | CCCCCCCCCCCCCC(=O)OCCN(CCOC(=O)CCCCCCCCCCCCC)C(=O)CCC[N+](C)(C)CCO.[Br-] [HE-Pr-DC, 4-(bis(2-(tetradecanoyloxy)ethyl)amino)-N-(2-hydroxyethyl)-N,N-dimethyl-4-oxobutan-1-aminium bromide] | 47% @ 50 nM | 
11 | CCCCCCCC/C=C\CCCCCCCC(=O)OCCCN(CCCOC(=O)CCCCCCC/C=C\CCCCCCCC)C(=O)C[N+](C)(C)CCO.[Br-] [Pr-HE-DODC, 2-(bis(3-(oleoyloxy)propyl)amino)-N-(2-hydroxyethyl)-N,N-dimethyl-2-oxoethanaminium bromide] | 73% @ 50 nM | 
12 | N1,N19-bis((R)-1,8-dioxo-7-(4-((E)-2-(5,5,8,8-tetramethyl-5,6,7,8-tetrahydro-naphthalen-2-yl)prop-1-en-1-yl)benzamido)-1-(4-((E)-2-(5,5,8,8-tetramethyl-5,6,7,8-tetrahydronaphthalen-2-yl)prop-1-en-1-yl)phenyl)-13,16,19-trioxa-2,9-diazadocosan-22-yl)-4,7,10,13,16-pentaoxanonadecane-1,19-diamide [Example 4TTNPB] |  | in vitro (pHSC) EC50 or % KD [1]: 34% @ 50 nM
